Measurements published in patent publication US20230151049A1, “Compounds Useful in HIV Therapy” (priority 2020, published 2023).
Like-named read-outs stand apart in the source and are kept apart here. Values belong to the compound of their own block, whether it stands above or below them.

Test: in vivo
Conditions: for concentration at 1 day: day 1
Source text: General Protocol for Prodrugs Rat PK Studies Conducted at ChemPartner, China
A total of three naïve male Wistar Han rats, 200-250 g, were received from Beijing VR Laboratory Animal Co. LTD. Following an acclimation period, the animals were assigned to the study based on acceptable health as determined by a staff veterinarian and catheter patency. Fasting of the animals before or after dosing was not required.
On Day 1, each animal received a single intramuscular injection of prepared test article at a target dose level of 20 mg/kg equivalent of EFdA and at a dose volume of 2 mL/kg. The injection sites were at gastrocnemius and identified with an indelible marker for daily monitoring during the study. The animals were manually restrained for dosing and were not sedated. The dose suspension was mixed well by inversion before each dose to ensure homogeneity. […] In addition, all animals are monitored twice daily by the veterinary staff for clinical abnormalities.
Blood samples were collected from the study animals as detailed in the sample collection Table 6 below
Each blood sample for PK (200 μL) was collected from tail vein. The blood was transferred to a tube containing NaF/Na2EDTA anticoagulant and inverted several times to mix. Draw 150 μL whole blood from the tube, add 150 uL 100 mM ammonium acetate, pH 4 buffer and mix well. The resulting blood samples were transferred to individual polypropylene tubes and immediately placed on dry ice until storage at nominally −80° C. prior to LC-MS/MS analysis.

[1] = day 63, single IM Example 11A 20 mg/kg equivalent of EFdA
[2] = day 70, single IM Example 11A 20 mg/kg equivalent of EFdA
[3] = day 77, single IM Example 11A 20 mg/kg equivalent of EFdA
[4] = day 84, single IM Example 11A 20 mg/kg equivalent of EFdA
[5] = day 91, single IM Example 11A 20 mg/kg equivalent of EFdA

- concentration at 1 day (male, Wistar Han, rat, whole blood, intramuscular, single IM Example 11A 20 mg/kg equivalent of EFdA, read-out: Mean concentration of Example 11A): 207 ng/mL
- concentration at 7 day (male, Wistar Han, rat, whole blood, intramuscular, day 7, single IM Example 11A 20 mg/kg equivalent of EFdA, read-out: Mean concentration of Example 11A): 6.93 ng/mL
- concentration at 14 day (male, Wistar Han, rat, whole blood, intramuscular, day 14, single IM Example 11A 20 mg/kg equivalent of EFdA, read-out: Mean concentration of Example 11A): 0.991 ng/mL
- concentration at 21 day (male, Wistar Han, rat, whole blood, intramuscular, day 21, single IM Example 11A 20 mg/kg equivalent of EFdA, read-out: Mean concentration of Example 11A): 2.68 ng/mL
- concentration at 28 day (male, Wistar Han, rat, whole blood, intramuscular, day 28, single IM Example 11A 20 mg/kg equivalent of EFdA, read-out: Mean concentration of Example 11A): 2 ng/mL
- concentration at 35 day (male, Wistar Han, rat, whole blood, intramuscular, day 35, single IM Example 11A 20 mg/kg equivalent of EFdA, read-out: Mean concentration of Example 11A): 1.35 ng/mL
- concentration at 42 day (male, Wistar Han, rat, whole blood, intramuscular, day 42, single IM Example 11A 20 mg/kg equivalent of EFdA, read-out: Mean concentration of Example 11A): 1.03 ng/mL
- concentration at 49 day (male, Wistar Han, rat, whole blood, intramuscular, day 49, single IM Example 11A 20 mg/kg equivalent of EFdA, read-out: Mean concentration of Example 11A): 0.929 ng/mL
- concentration at 56 day (male, Wistar Han, rat, whole blood, intramuscular, day 56, single IM Example 11A 20 mg/kg equivalent of EFdA, read-out: Mean concentration of Example 11A): 0.95 ng/mL
Compound: C#C[C@]1(COP(=O)(N[C@@H](Cc2ccccc2)C(=O)OCCCCCCCCCCCC)OCC(=O)OCCCCCCCCCCCC)O[C@@H](n2cnc3c(N)nc(F)nc32)C[C@@H]1O (single isomer, unassigned) [Example 11A]
- Mean concentration of EFdA (day 21, single IM Example 11A 20 mg/kg equivalent of EFdA): BQL (BQL = below quantification limit, 0.3-0.5 ng/mL for Example 11A and 0.1-0.3 ng/mL for EFdA)
- Mean concentration of EFdA (day 28, single IM Example 11A 20 mg/kg equivalent of EFdA): BQL (BQL = below quantification limit, 0.3-0.5 ng/mL for Example 11A and 0.1-0.3 ng/mL for EFdA)
- Mean concentration of EFdA (day 35, single IM Example 11A 20 mg/kg equivalent of EFdA): BQL (BQL = below quantification limit, 0.3-0.5 ng/mL for Example 11A and 0.1-0.3 ng/mL for EFdA)
- Mean concentration of EFdA (day 42, single IM Example 11A 20 mg/kg equivalent of EFdA): BQL (BQL = below quantification limit, 0.3-0.5 ng/mL for Example 11A and 0.1-0.3 ng/mL for EFdA)
- Mean concentration of EFdA (day 49, single IM Example 11A 20 mg/kg equivalent of EFdA): BQL (BQL = below quantification limit, 0.3-0.5 ng/mL for Example 11A and 0.1-0.3 ng/mL for EFdA)
- Mean concentration of EFdA (day 56, single IM Example 11A 20 mg/kg equivalent of EFdA): BQL (BQL = below quantification limit, 0.3-0.5 ng/mL for Example 11A and 0.1-0.3 ng/mL for EFdA)
- Mean concentration of EFdA [1]: BQL (BQL = below quantification limit, 0.3-0.5 ng/mL for Example 11A and 0.1-0.3 ng/mL for EFdA)
- Mean concentration of Example 11A [1]: BQL (BQL = below quantification limit, 0.3-0.5 ng/mL for Example 11A and 0.1-0.3 ng/mL for EFdA)
- Mean concentration of EFdA [2]: BQL (BQL = below quantification limit, 0.3-0.5 ng/mL for Example 11A and 0.1-0.3 ng/mL for EFdA)
- Mean concentration of Example 11A [2]: BQL (BQL = below quantification limit, 0.3-0.5 ng/mL for Example 11A and 0.1-0.3 ng/mL for EFdA)
- Mean concentration of EFdA [3]: BQL (BQL = below quantification limit, 0.3-0.5 ng/mL for Example 11A and 0.1-0.3 ng/mL for EFdA)
- Mean concentration of Example 11A [3]: BQL (BQL = below quantification limit, 0.3-0.5 ng/mL for Example 11A and 0.1-0.3 ng/mL for EFdA)
- Mean concentration of EFdA [4]: BQL (BQL = below quantification limit, 0.3-0.5 ng/mL for Example 11A and 0.1-0.3 ng/mL for EFdA)
- Mean concentration of Example 11A [4]: BQL (BQL = below quantification limit, 0.3-0.5 ng/mL for Example 11A and 0.1-0.3 ng/mL for EFdA)
- Mean concentration of EFdA [5]: BQL (BQL = below quantification limit, 0.3-0.5 ng/mL for Example 11A and 0.1-0.3 ng/mL for EFdA)
- Mean concentration of Example 11A [5]: BQL (BQL = below quantification limit, 0.3-0.5 ng/mL for Example 11A and 0.1-0.3 ng/mL for EFdA)

Compound: C#C[C@]1(COP(=O)(N[C@@H](Cc2cc(F)cc(F)c2)C(=O)OCCCCCCCCCCCCCCCC)Oc2ccccc2)O[C@@H](n2cnc3c(N)nc(F)nc32)C[C@@H]1O (single isomer, unassigned) [Example 39A]
- Mean concentration of EFdA (day 28, single IM Example 39A 58 mg/kg): BQL (BQL = below quantification limit, 0.3 ng/mL for both)
- Mean concentration of EFdA (day 35, single IM Example 39A 58 mg/kg): BQL (BQL = below quantification limit, 0.3 ng/mL for both)
- Mean concentration of EFdA (day 42, single IM Example 39A 58 mg/kg): BQL (BQL = below quantification limit, 0.3 ng/mL for both)
- Mean concentration of EFdA (day 49, single IM Example 39A 58 mg/kg): BQL (BQL = below quantification limit, 0.3 ng/mL for both)
- Mean concentration of EFdA (day 56, single IM Example 39A 58 mg/kg): BQL (BQL = below quantification limit, 0.3 ng/mL for both)
- Mean concentration of EFdA (day 63, single IM Example 39A 58 mg/kg): BQL (BQL = below quantification limit, 0.3 ng/mL for both)
- Mean concentration of EFdA (day 70, single IM Example 39A 58 mg/kg): BQL (BQL = below quantification limit, 0.3 ng/mL for both)
- Mean concentration of EFdA (day 77, single IM Example 39A 58 mg/kg): BQL (BQL = below quantification limit, 0.3 ng/mL for both)
- Mean concentration of EFdA (day 84, single IM Example 39A 58 mg/kg): BQL (BQL = below quantification limit, 0.3 ng/mL for both)
- concentration at 1 day (male, Wistar Han, rat, in vivo, single IM Example 39A 58 mg/kg, read-out: Mean concentration of Example 39A): 17 ng/mL
- concentration at 7 day (male, Wistar Han, rat, in vivo, day 7, single IM Example 39A 58 mg/kg, read-out: Mean concentration of Example 39A): 13.2 ng/mL
- concentration at 14 day (male, Wistar Han, rat, in vivo, day 14, single IM Example 39A 58 mg/kg, read-out: Mean concentration of Example 39A): 6.43 ng/mL
- concentration at 21 day (male, Wistar Han, rat, in vivo, day 21, single IM Example 39A 58 mg/kg, read-out: Mean concentration of Example 39A): 8.77 ng/mL
- concentration at 28 day (male, Wistar Han, rat, in vivo, day 28, single IM Example 39A 58 mg/kg, read-out: Mean concentration of Example 39A): 7.98 ng/mL
- concentration at 35 day (male, Wistar Han, rat, in vivo, day 35, single IM Example 39A 58 mg/kg, read-out: Mean concentration of Example 39A): 3.56 ng/mL
- concentration at 42 day (male, Wistar Han, rat, in vivo, day 42, single IM Example 39A 58 mg/kg, read-out: Mean concentration of Example 39A): 2.61 ng/mL
- concentration at 49 day (male, Wistar Han, rat, in vivo, day 49, single IM Example 39A 58 mg/kg, read-out: Mean concentration of Example 39A): 2.45 ng/mL
- concentration at 56 day (male, Wistar Han, rat, in vivo, day 56, single IM Example 39A 58 mg/kg, read-out: Mean concentration of Example 39A): 3.42 ng/mL
- concentration at 63 day (male, Wistar Han, rat, in vivo, day 63, single IM Example 39A 58 mg/kg, read-out: Mean concentration of Example 39A): 2.7 ng/mL
- concentration at 70 day (male, Wistar Han, rat, in vivo, day 70, single IM Example 39A 58 mg/kg, read-out: Mean concentration of Example 39A): 1.68 ng/mL
- concentration at 77 day (male, Wistar Han, rat, in vivo, day 77, single IM Example 39A 58 mg/kg, read-out: Mean concentration of Example 39A): 1.18 ng/mL
- concentration at 84 day (male, Wistar Han, rat, in vivo, day 84, single IM Example 39A 58 mg/kg, read-out: Mean concentration of Example 39A): 1.39 ng/mL

Compound: C#C[C@]1(COP(=O)(N[C@@H](Cc2cc(F)cc(F)c2)C(=O)OCCCCCCCCCCCCCCCCCCCCCC)Oc2ccccc2)O[C@@H](n2cnc3c(N)nc(F)nc32)C[C@@H]1O (single isomer, unassigned) [Example 42B]
- Mean concentration of EFdA (day 7, single IM Example 42B 64 mg/kg): BQL (BQL = below quantification limit, 0.3 ng/mL for both)
- Mean concentration of EFdA (day 14, single IM Example 42B 64 mg/kg): BQL (BQL = below quantification limit, 0.3 ng/mL for both)
- Mean concentration of EFdA (day 21, single IM Example 42B 64 mg/kg): BQL (BQL = below quantification limit, 0.3 ng/mL for both)
- Mean concentration of EFdA (day 28, single IM Example 42B 64 mg/kg): BQL (BQL = below quantification limit, 0.3 ng/mL for both)
- Mean concentration of EFdA (day 35, single IM Example 42B 64 mg/kg): BQL (BQL = below quantification limit, 0.3 ng/mL for both)
- Mean concentration of EFdA (day 42, single IM Example 42B 64 mg/kg): BQL (BQL = below quantification limit, 0.3 ng/mL for both)
- Mean concentration of EFdA (day 49, single IM Example 42B 64 mg/kg): BQL (BQL = below quantification limit, 0.3 ng/mL for both)
- Mean concentration of EFdA (day 56, single IM Example 42B 64 mg/kg): BQL (BQL = below quantification limit, 0.3 ng/mL for both)
- Mean concentration of EFdA (day 63, single IM Example 42B 64 mg/kg): BQL (BQL = below quantification limit, 0.3 ng/mL for both)
- Mean concentration of EFdA (day 70, single IM Example 42B 64 mg/kg): BQL (BQL = below quantification limit, 0.3 ng/mL for both)
- Mean concentration of EFdA (day 77, single IM Example 42B 64 mg/kg): BQL (BQL = below quantification limit, 0.3 ng/mL for both)
- Mean concentration of EFdA (day 84, single IM Example 42B 64 mg/kg): BQL (BQL = below quantification limit, 0.3 ng/mL for both)
